Data as given in the supplement of paper PMC6045584.
± gives the standard deviation of the averaged measurements.

Assays:
PACLITAXEL = compound: CC(=O)O[C@H]1C(=O)[C@@]2(C)[C@H]([C@H](OC(=O)c3ccccc3)[C@]3(O)C[C@H](OC(=O)[C@H](O)[C@@H](NC(=O)c4ccccc4)c4ccccc4)C(C)=C1C3(C)C)[C@]1(OC(C)=O)CO[C@@H]1C[C@@H]2O [PACLITAXEL]; experiment: surviving fraction relative to DMSO-only wells; higher = less growth inhibition; settings: exposure time: 5 days
In short: (§1)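 Tumour cell lines in log phase were plated in 384-well plates at 250–500 cells per well, then, after 24 hours, exposed continuously for five days to inhibitors at 0.5, 1, 5, 10, 50, 100, 500 and 1000 nM. Viability came from CellTiter-Glo luminescence, and surviving fraction is that signal normalised to the median of DMSO-only wells. Plates were read after 10 minutes at room temperature, and each line, screened three times, was kept only when replicate Pearson r was >0.7 and median Z' was >0.3.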

CARBOPLATIN = compound: O=C(O)C1(C(=O)O)CCC1.[NH2-].[NH2-].[Pt+2] [CARBOPLATIN]; experiment: as above; settings: exposure time: 5 days
In short: as §1

Test System	surviving fraction (PACLITAXEL; 0.5 nM)	surviving fraction (PACLITAXEL; 1 nM)	surviving fraction (PACLITAXEL; 5 nM)	surviving fraction (PACLITAXEL; 10 nM)	surviving fraction (PACLITAXEL; 50 nM)	surviving fraction (PACLITAXEL; 100 nM)	surviving fraction (PACLITAXEL; 500 nM)	surviving fraction (PACLITAXEL; 1000 nM)	surviving fraction (CARBOPLATIN; 0.5 nM)	surviving fraction (CARBOPLATIN; 1 nM)	surviving fraction (CARBOPLATIN; 5 nM)	surviving fraction (CARBOPLATIN; 10 nM)	surviving fraction (CARBOPLATIN; 50 nM)	surviving fraction (CARBOPLATIN; 100 nM)	surviving fraction (CARBOPLATIN; 500 nM)	surviving fraction (CARBOPLATIN; 1000 nM)
SKBR3 BREAST	0.925 ± 0.13	0.413 ± 0.061	0.165 ± 0.0059	0.157 ± 0.02	0.135 ± 0.023	0.139 ± 0.013	0.123 ± 0.015	0.136 ± 0.028	1.01 ± 0.098	1.06 ± 0.1	1.06 ± 0.11	0.987 ± 0.2	1.08 ± 0.049	1.04 ± 0.073	1.07 ± 0.073	1.03 ± 0.14
HCC78 LUNG	0.846 ± 0.3	0.486 ± 0.046	0.16 ± 0.036	0.104 ± 0.021	0.0717 ± 0.019	0.077 ± 0.011	0.0673 ± 0.013	0.1 ± 0.018	1.04 ± 0.061	0.884 ± 0.23	1.2 ± 0.18	0.951 ± 0.25	1 ± 0.22	1.12 ± 0.2	0.973 ± 0.037	0.954 ± 0.18
NOS1 BONE	1.08 ± 0.072	0.6 ± 0.053	0.396 ± 0.026	0.304 ± 0.0081	0.287 ± 0.024	0.252 ± 0.013	0.214 ± 0.039	0.21 ± 0.024	1.22 ± 0.2	1.08 ± 0.076	1.31 ± 0.13	1.25 ± 0.1	1.22 ± 0.14	1.23 ± 0.1	1.11 ± 0.051	0.955 ± 0.073
HOS BONE	1.01 ± 0.011	0.95 ± 0.01	0.085 ± 0.003	0.0507 ± 0.004	0.0357 ± 0.004	0.025 ± 0.001	0.0223 ± 0.0011	0.0217 ± 0.0015	1.06 ± 0.013	1.05 ± 0.02	1.04 ± 0.03	1.04 ± 0.02	1.15 ± 0.05	1.11 ± 0.033	1.07 ± 0.02	1.068 ± 0.0086
SCC47 HEADNECK	1 ± 0.079	0.749 ± 0.029	0.37 ± 0.015	0.199 ± 0.015	0.143 ± 0.01	0.141 ± 0.0051	0.1213 ± 0.00058	0.115 ± 0.015	1.21 ± 0.072	1.17 ± 0.042	1.19 ± 0.017	1.19 ± 0.071	1.26 ± 0.054	1.21 ± 0.16	1.14 ± 0.019	1.08 ± 0.045
CAL72 BONE	0.876 ± 0.061	0.459 ± 0.078	0.386 ± 0.047	0.297 ± 0.032	0.191 ± 0.018	0.135 ± 0.031	0.112 ± 0.0096	0.123 ± 0.025	1.05 ± 0.081	1.03 ± 0.094	1.06 ± 0.035	1.06 ± 0.052	1.12 ± 0.084	1.03 ± 0.23	1.1 ± 0.11	1.01 ± 0.15
VP229 BREAST	1.05 ± 0.091	0.93 ± 0.067	0.516 ± 0.064	0.364 ± 0.041	0.338 ± 0.013	0.27 ± 0.019	0.279 ± 0.052	0.293 ± 0.024	1.12 ± 0.14	1.05 ± 0.022	1.11 ± 0.12	0.961 ± 0.088	1.17 ± 0.21	1.05 ± 0.025	1.19 ± 0.096	0.956 ± 0.14
HUO3N1 BONE	0.808 ± 0.025	0.74 ± 0.019	0.334 ± 0.011	0.23 ± 0.0085	0.129 ± 0.0068	0.115 ± 0.0063	0.094 ± 0.006	0.1 ± 0.018	1.08 ± 0.016	1.06 ± 0.061	1.13 ± 0.065	1.12 ± 0.046	1.11 ± 0.05	1.09 ± 0.034	1.05 ± 0.016	0.98 ± 0.068
H23 LUNG	0.951 ± 0.03	0.866 ± 0.022	0.18 ± 0.0027	0.14 ± 0.0095	0.113 ± 0.0091	0.108 ± 0.0042	0.0867 ± 0.0067	0.089 ± 0.003	1.06 ± 0.038	1.08 ± 0.029	1.07 ± 0.013	1.01 ± 0.03	1.03 ± 0.037	1.15 ± 0.02	1.09 ± 0.046	1.11 ± 0.067
MDAMB436 BREAST	0.794 ± 0.033	0.684 ± 0.015	0.314 ± 0.022	0.21 ± 0.0036	0.192 ± 0.03	0.173 ± 0.016	0.171 ± 0.014	0.198 ± 0.018	0.923 ± 0.041	0.92 ± 0.019	0.998 ± 0.15	0.924 ± 0.11	1.09 ± 0.21	0.906 ± 0.078	1.02 ± 0.033	0.924 ± 0.088
